This is an account of results in doi:10.1101/2023.03.24.534094v2 (biorxiv, 2023).

Where two headings read alike, the source gives them in different places.

One experiment has as its target MST3 (Homo sapiens, UniProt Q9Y6E0). As to the kind of experiment: biochemical.
The target in a further experiment is Wnk1 (Homo sapiens, UniProt Q9H4A3). As to the kind of experiment: biochemical.
Experiment [1] deals with T1, MST1 (Homo sapiens, UniProt Q13043).
T1 sequence (Q13043 1-487): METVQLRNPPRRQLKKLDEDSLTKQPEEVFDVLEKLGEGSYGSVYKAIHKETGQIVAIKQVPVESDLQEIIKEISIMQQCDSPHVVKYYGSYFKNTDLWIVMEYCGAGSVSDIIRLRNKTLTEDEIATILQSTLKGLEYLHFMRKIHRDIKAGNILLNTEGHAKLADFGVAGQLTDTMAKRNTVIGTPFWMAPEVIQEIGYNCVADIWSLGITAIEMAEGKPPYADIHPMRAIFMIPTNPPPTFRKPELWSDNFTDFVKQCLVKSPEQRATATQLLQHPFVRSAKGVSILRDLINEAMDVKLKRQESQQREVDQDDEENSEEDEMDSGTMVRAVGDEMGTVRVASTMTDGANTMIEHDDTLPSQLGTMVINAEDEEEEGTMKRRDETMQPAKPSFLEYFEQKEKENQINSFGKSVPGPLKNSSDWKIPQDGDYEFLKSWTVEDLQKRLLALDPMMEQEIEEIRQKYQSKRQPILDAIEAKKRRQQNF
Briefly: biochemical.

Another experiment concerns the target PAK1 (Homo sapiens, UniProt Q13153). As to the kind of experiment: biochemical.
A further experiment has as its target MST4 (Homo sapiens, UniProt Q9P289). Briefly: biochemical. The settings on record: for ΔTm at 10 µM: read-out: dTm MST4.
In experiment [2] the target is T1, MST1. As to the kind of experiment: biochemical. The note with it: for ΔTm at 10 µM: read-out: dTm MST1.
The target of another experiment is T2, MST2 (Homo sapiens, UniProt Q13188).
T2 sequence (Q13188 1-491): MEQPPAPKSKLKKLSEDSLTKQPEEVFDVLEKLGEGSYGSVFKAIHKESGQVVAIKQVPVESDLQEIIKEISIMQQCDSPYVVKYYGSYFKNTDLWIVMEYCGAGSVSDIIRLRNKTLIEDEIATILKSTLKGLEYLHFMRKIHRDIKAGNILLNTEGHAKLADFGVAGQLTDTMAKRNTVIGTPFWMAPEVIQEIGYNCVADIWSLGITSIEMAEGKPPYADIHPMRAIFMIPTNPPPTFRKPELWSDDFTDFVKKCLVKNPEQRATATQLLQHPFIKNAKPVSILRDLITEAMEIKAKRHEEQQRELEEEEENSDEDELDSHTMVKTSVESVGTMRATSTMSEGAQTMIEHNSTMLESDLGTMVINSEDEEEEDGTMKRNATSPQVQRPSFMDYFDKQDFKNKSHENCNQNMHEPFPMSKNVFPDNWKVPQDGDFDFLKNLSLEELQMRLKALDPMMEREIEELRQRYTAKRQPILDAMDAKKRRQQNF
Briefly: biochemical. The note with it: for ΔTm at 10 µM: read-out: dTm MST2.

A further experiment concerns the target SIK3 (Homo sapiens, UniProt Q9Y2K2). As to the kind of experiment: NanoBRET target engagement. The format is cell-based. The note with it: intact mode, HEK293T, 37 °C, 2 h, tracer displacement.
In the next experiment the target is SIK1 (Homo sapiens, UniProt P57059). As to the kind of experiment: NanoBRET target engagement. The format is biochemical. The note with it: lysed mode, HEK293T, tracer displacement.
In the next experiment the target is SIK2 (Homo sapiens, UniProt Q9H0K1). Briefly: NanoBRET target engagement. The settings on record: intact mode, HEK293T, 37 °C, 2 h, tracer displacement. The format is cell-based. A general note: Bioluminescence resonance energy transfer reports proximity on the nanometre scale.
SIK2, sequence (Q9H0K1 whole entry): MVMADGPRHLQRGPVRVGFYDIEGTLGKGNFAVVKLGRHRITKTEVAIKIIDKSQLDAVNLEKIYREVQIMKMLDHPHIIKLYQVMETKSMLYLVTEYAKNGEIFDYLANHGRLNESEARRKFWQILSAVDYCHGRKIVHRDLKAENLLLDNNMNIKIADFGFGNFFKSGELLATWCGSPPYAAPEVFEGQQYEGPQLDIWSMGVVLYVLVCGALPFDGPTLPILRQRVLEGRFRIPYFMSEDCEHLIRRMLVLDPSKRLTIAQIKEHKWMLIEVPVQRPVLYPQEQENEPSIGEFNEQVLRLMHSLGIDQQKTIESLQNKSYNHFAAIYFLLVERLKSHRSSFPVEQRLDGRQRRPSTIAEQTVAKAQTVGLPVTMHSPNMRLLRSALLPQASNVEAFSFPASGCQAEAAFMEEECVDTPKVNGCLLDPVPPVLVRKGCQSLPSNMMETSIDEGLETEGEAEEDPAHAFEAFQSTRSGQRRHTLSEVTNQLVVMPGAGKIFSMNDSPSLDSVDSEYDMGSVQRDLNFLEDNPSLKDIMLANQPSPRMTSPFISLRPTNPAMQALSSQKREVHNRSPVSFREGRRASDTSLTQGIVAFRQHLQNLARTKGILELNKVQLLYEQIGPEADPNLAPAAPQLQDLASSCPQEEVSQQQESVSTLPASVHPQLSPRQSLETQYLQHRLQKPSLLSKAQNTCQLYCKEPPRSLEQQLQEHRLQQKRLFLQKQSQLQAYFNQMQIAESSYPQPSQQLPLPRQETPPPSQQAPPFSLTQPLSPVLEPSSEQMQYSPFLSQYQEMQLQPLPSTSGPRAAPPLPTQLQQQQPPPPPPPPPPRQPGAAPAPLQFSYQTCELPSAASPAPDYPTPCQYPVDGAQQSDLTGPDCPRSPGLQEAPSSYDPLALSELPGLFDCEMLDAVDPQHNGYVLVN
The target in a further experiment is FGFR2 (Homo sapiens, UniProt P21802). Briefly: biochemical.
FGFR2, sequence (P21802 whole entry): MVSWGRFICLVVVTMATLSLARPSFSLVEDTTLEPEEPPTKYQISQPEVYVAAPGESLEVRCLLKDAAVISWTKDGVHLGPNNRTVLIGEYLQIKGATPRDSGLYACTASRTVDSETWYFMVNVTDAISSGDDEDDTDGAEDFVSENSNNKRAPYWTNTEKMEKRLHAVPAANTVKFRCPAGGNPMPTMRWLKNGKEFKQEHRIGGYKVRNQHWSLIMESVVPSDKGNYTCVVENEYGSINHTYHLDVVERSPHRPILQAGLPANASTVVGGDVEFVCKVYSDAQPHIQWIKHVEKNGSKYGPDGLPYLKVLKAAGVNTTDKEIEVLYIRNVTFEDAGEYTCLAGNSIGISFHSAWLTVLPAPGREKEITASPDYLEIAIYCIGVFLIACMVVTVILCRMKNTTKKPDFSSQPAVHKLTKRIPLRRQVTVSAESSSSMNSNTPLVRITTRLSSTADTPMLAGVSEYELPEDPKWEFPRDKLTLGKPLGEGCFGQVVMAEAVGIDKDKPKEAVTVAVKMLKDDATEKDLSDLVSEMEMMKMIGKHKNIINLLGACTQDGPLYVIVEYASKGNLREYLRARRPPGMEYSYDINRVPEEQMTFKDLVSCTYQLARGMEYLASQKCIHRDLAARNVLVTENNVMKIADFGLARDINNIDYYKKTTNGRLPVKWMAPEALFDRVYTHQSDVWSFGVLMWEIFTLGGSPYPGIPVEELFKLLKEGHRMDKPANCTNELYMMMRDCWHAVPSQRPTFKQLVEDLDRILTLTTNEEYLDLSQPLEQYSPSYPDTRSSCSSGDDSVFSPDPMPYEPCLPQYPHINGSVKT
The target in the next experiment is T3, DRAK1 (Homo sapiens, UniProt Q9UEE5).
T3 sequence (Q9UEE5 1-414): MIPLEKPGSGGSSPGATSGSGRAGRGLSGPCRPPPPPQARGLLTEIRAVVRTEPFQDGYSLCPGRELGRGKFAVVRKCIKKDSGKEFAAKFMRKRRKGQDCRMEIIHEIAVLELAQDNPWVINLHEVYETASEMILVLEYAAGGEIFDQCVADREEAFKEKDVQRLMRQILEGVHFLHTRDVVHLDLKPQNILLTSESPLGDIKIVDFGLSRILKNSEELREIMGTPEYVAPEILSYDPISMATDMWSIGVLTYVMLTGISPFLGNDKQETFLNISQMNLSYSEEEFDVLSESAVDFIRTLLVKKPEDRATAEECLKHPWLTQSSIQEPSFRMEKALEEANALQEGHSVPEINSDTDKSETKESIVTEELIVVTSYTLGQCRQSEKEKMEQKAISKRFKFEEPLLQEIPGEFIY
As to the kind of experiment: biochemical.

PAK1, sequence (Q13153 whole entry): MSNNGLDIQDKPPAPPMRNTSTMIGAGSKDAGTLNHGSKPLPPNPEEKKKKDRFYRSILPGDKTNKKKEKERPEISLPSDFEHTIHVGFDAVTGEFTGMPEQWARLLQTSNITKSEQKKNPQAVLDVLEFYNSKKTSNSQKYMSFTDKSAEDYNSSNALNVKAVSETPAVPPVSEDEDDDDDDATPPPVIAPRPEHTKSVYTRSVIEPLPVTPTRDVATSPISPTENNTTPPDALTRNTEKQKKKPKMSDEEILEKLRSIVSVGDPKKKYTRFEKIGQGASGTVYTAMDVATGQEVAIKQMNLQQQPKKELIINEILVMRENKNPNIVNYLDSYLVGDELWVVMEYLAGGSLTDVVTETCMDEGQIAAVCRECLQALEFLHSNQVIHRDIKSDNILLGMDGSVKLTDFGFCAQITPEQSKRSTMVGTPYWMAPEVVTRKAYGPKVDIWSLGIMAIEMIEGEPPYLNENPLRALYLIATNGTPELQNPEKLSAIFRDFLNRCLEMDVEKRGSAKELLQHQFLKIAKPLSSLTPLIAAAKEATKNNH
MST4, sequence (Q9P289 whole entry): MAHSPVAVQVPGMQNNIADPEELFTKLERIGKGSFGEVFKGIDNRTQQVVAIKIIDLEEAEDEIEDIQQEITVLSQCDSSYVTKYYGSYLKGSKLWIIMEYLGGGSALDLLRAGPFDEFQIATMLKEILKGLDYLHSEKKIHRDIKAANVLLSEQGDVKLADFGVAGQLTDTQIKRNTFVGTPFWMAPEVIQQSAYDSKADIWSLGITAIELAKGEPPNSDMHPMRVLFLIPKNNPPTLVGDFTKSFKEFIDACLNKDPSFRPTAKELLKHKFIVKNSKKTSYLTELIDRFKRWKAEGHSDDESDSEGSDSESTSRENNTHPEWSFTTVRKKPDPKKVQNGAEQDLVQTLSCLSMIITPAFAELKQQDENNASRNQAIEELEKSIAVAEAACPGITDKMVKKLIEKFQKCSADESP
MST3, sequence (Q9Y6E0 whole entry): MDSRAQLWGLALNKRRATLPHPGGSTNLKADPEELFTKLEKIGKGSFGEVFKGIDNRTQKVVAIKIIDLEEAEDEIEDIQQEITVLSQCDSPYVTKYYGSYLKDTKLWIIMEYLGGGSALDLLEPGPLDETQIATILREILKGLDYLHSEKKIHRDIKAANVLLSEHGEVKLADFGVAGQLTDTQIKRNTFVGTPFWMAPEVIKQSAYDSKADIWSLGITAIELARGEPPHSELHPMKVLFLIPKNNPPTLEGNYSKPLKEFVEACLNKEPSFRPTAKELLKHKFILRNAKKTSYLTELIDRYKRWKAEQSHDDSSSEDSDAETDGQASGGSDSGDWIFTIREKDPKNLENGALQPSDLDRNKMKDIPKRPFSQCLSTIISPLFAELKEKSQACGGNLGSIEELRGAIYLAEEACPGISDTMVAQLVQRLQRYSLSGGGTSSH
SIK3, sequence (Q9Y2K2 whole entry): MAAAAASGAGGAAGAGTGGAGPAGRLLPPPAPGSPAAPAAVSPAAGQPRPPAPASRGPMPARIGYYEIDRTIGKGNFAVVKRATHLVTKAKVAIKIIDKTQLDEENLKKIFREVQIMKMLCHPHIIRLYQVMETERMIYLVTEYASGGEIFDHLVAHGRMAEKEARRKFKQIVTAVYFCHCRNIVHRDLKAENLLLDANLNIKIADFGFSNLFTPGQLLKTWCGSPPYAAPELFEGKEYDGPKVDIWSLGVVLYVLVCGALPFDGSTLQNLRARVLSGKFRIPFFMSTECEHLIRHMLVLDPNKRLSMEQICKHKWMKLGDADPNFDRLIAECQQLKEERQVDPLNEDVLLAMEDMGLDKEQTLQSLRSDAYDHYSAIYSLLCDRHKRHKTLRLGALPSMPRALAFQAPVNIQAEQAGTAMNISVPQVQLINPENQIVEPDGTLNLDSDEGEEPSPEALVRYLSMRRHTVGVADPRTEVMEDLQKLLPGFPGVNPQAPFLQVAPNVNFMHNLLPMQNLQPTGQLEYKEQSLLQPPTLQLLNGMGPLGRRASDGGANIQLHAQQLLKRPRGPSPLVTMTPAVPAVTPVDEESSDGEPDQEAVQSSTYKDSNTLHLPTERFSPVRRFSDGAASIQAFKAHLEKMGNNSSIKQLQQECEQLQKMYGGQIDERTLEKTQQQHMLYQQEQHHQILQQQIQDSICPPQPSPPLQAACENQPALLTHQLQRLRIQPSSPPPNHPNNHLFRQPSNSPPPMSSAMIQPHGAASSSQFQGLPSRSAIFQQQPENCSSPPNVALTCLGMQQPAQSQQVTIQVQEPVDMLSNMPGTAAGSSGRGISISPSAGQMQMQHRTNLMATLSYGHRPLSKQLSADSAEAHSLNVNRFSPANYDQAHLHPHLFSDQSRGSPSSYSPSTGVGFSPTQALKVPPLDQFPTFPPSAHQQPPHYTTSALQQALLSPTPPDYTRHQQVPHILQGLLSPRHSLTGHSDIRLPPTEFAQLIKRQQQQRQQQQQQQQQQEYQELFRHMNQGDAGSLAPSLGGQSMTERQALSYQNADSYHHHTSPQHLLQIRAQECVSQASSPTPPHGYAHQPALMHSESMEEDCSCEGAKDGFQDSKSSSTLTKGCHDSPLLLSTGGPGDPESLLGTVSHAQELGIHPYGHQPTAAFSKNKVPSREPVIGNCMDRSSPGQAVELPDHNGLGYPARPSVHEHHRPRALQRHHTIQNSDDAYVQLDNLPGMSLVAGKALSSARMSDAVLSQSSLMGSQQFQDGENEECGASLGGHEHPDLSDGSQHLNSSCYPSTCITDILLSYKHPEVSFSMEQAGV

`CNc1ncc2cc(-c3ccc(-c4cccc(C)n4)cc3Cl)c(=O)n(CC3OCC(N)CO3)c2n1` (centres unmarked) [compound 2, G-5555]: the “∆Tm G-5555 (2)” value at MST3 (10 µM, binder) worked out at 7.5 degC; on Wnk1 (10 µM, binder) it was 2.4 degC; at MST1 [1] (10 µM, binder), 4.5 degC; at PAK1 (10 µM, binder), 6.4 degC. Moreover, the “dTm MST4” value at MST4 (10 µM, binder) was 6.4 °C. Besides, the “dTm MST1” value on MST1 [2] (10 µM, binder) was found to be 4.2 °C. For the same compound, the “dTm MST2” value at MST2 (10 µM, binder) turned out to be 5.0 °C.

Regarding `CNc1ncc2cc(-c3ccccc3Cl)c(=O)n(CCCCN)c2n1` [compound 4, 8-(4-Aminobutyl)-6-(2-chlorophenyl)-2-(methylamino)pyrido[2,3-d]pyrimidin-7(8H)-one], the ΔTm at 10 µM is 4.1 °C at MST3 (read-out: ∆Tm MR21 (4)); -0.4 °C at Wnk1 (read-out: ∆Tm MR21 (4)); 1.5 °C on MST1 [1] (read-out: ∆Tm MR21 (4)); 1.6 °C at PAK1 (read-out: ∆Tm MR21 (4)); 2.6 °C at MST4; 1.9 °C at MST1 [2]. Also, the ΔTm at 10 µM on MST2 is 2.2 °C. Besides, the IC50 (usually the midpoint of a concentration-inhibition curve) on SIK3 came to 25 ± 3 nM; at SIK1 it was 20 ± 7 nM; at SIK2, 74 ± 2 nM.

`CNc1ncc2cc(-c3cc(C(F)(F)F)ccc3Cl)c(=O)n(CCCCN)c2n1` [compound 9, 8-(4-Aminobutyl)-6-(2-chloro-5-(trifluoromethyl)phenyl)-2-(methylamino)pyrido[2,3-d]pyrimidin-7(8H)-one]: the ΔTm at 10 µM on MST4 was 0.4 °C; on FGFR2 (read-out: dTm 9), 2.1 °C; on DRAK1 (read-out: dTm 9) it was -1.1 °C; at MST1 [2] it was 0.9 °C; on MST2 it was 0.8 °C. Further, the concentration for half-maximal inhibition (IC50) amounted to 2500 ± 100 nM at SIK3, 1000 ± 400 nM at SIK1 and 6100 ± 100 nM at SIK2.

For `CNc1ncc2cc(-c3cc(Cl)ccc3Cl)c(=O)n(CCCCN)c2n1` [compound 8, 8-(4-Aminobutyl)-6-(2,5-dichlorophenyl)-2-(methylamino)pyrido[2,3-d]pyrimidin-7(8H)-one], the ΔTm at 10 µM at MST4 is 2 °C; at FGFR2 (read-out: dTm 8), 4.1 °C; on DRAK1 (read-out: dTm 8) it was 1.1 °C; on MST1 [2], 1.6 °C; on MST2, 1.4 °C. Moreover, the figures for the IC50 at SIK3, on SIK1 and at SIK2 were 113 ± 95 nM, 277 ± 123 nM and 665 ± 40 nM, respectively.

As for `CNc1ncc2cc(-c3cc(Br)ccc3Br)c(=O)n(CCCCN)c2n1` [compound 11, 8-(4-Aminobutyl)-6-(2,5-dibromophenyl)-2-(methylamino)pyrido[2,3-d]pyrimidin-7(8H)-one], the ΔTm at 10 µM on MST4 is 1.5 °C; on FGFR2 (read-out: dTm 11), 3.4 °C; at DRAK1 (read-out: dTm 11), -0.8 °C; on MST1 [2] it was 1.6 °C; on MST2, 1.4 °C. Also, the IC50 on SIK3 is 1200 ± 100 nM; at SIK1, 429 ± 117 nM; on SIK2, 2700 ± 100 nM.

For the compound `CNc1ncc2cc(-c3cc(Br)ccc3Cl)c(=O)n(C[C@H]3OC[C@H](N)CO3)c2n1` [compound 7, 8-(((2r,5r)-5-Amino-1,3-dioxan-2-yl)methyl)-6-(5-bromo-2-chlorophenyl)-2-(methylamino)pyrido[2,3-d]pyrimidin-7(8H)-one], the ΔTm at 10 µM came out at 0.8 °C at MST3 (read-out: ∆Tm 7); 1.1 °C on Wnk1 (read-out: ∆Tm 7); 0.6 °C at PAK1 (read-out: ∆Tm 7); 0.6 °C on MST4; 1.7 °C at MST1 [2]; 1.5 °C on MST2. Moreover, the figures for the half-inhibitory concentration (IC50) on SIK3, at SIK1 and on SIK2 were 1000 ± 300 nM, 2400 ± 1100 nM and 4400 ± 100 nM, respectively.

Consider `CNc1ncc2cc(-c3cc(Br)ccc3Cl)c(=O)n(CCCCN)c2n1` [compound 6, 8-(4-Aminobutyl)-6-(5-bromo-2-chlorophenyl)-2-(methylamino)pyrido[2,3-d]pyrimidin-7(8H)-one], for which the ΔTm at 10 µM on MST3 (read-out: ∆Tm 6) worked out at 2.7 °C; on Wnk1 (read-out: ∆Tm 6), 0 °C; at MST4 it was 2.2 °C; at MST1 [2], 1.9 °C; on MST2 it was 2.5 °C. The values for the IC50 at SIK3, at SIK1 and at SIK2 were 352 ± 11 nM, 239 ± 46 nM and 1400 ± 100 nM, respectively.

Turning to `CNc1ncc2cc(-c3cc(F)c(-c4cccc(C)n4)cc3F)c(=O)n(CCCCN)c2n1` [compound 12, 8-(4-Aminobutyl)-6-(2,5-difluoro-4-(6-methylpyridin-2-yl)phenyl)-2-(methylamino)pyrido[2,3-d]pyrimidin-7(8H)-one], the ΔTm at 10 µM at MST4 was found to be 7.6 °C; on FGFR2 (read-out: dTm 12), 1.1 °C; on DRAK1 (read-out: dTm 12), 0 °C; at MST1 [2], 2.8 °C; at MST2 it was 5.2 °C. For the same compound, the half-maximal inhibitory concentration (IC50) turned out to be 4 ± 0.1 nM at SIK3, 6 ± 2 nM at SIK1 and 31 ± 1 nM at SIK2.

`CNc1ncc2cc(-c3cc(F)ccc3F)c(=O)n(CCCCN)c2n1` [compound 5, 8-(4-Aminobutyl)-6-(2,5-difluorophenyl)-2-(methylamino)pyrido[2,3-d]pyrimidin-7(8H)-one]: the ΔTm at 10 µM on MST3 (read-out: ∆Tm MR22 (5)) was 1.6 °C; on Wnk1 (read-out: ∆Tm MR22 (5)) it was -0.1 °C; at MST1 [1] (read-out: ∆Tm MR22 (5)), -0.3 °C; on MST4, 0.9 °C; on MST1 [2] it was 0.9 °C; at MST2, 0.6 °C. The IC50 on SIK3 is 18 ± 2 nM; at SIK1, 72 ± 11 nM; at SIK2 it was 89 ± 2 nM.

Turning to `CNc1ncc2cc(-c3cc(Cl)ccc3Br)c(=O)n(CCCCN)c2n1` [compound 10, 8-(4-Aminobutyl)-6-(2-bromo-5-chlorophenyl)-2-(methylamino)pyrido[2,3-d]pyrimidin-7(8H)-one], the ΔTm at 10 µM on MST4 was 1.8 °C; at FGFR2 (read-out: dTm 10), 3.3 °C; on DRAK1 (read-out: dTm 10), -0.8 °C; on MST1 [2], 1.5 °C; at MST2, 1.4 °C. For the same compound, the IC50 on SIK3 worked out at 290 ± 42 nM; on SIK1, 228 ± 142 nM; on SIK2 it was 1100 ± 100 nM.
